The numbers were not newly measured in patent US20160001001A1 (priority 2013, published 2016), which cites them from elsewhere.

Molecules are shown by their SMILES.

The conditions of this series: in vivo.

In the case of `CN1CC[C@]23c4c5ccc(O)c4O[C@H]2[C@@H](O)C=C[C@H]3[C@H]1C5` [Morphine], the Onset time was 8 min and the “Time elapsing until the maximum analgesic effect is reached” value was 25 min.
